Test results: patent publication US20230305022A1, “Biomarkers in Primary Biliary Cholangitis” (University of Newcastle upon Tyne, priority 2020, published 2023)

System: Ep-CAM
Experiment: Discovery serum proteomics (Olink), UDCA-treated vs treatment-naïve PBC patients
Format: in vivo, human
Settings: serum NPX, UDCA 13-15 mg/kg/day for >12 months (n=416) vs treatment-naïve (n=68)
Protocol: UDCA-Treated PBC: These were PBC patients who had been taking UDCA at a therapeutic dose (13-15 mg/kg/day) for greater than 12 months. Clinical parameters, including serum biochemistry were available both pre-treatment and after 12 months of UDCA therapy. This allowed all UDCA-treated patients to be assigned to responder and non-responder groups using current standard criteria including Paris 1 (Alanine Transaminase (ALT)>2× upper limit of normal [ULN], Alkaline Phosphatase (ALP)>3×ULN, Bilirubin>1×ULN) (Corpechot et al., 2008), Paris 2 (ALP and ALT both >1.5×ULN)(Corpechot et al., 2011) and POISE (ALP <1.67×ULN and bilirubin <1×ULN) (Nevens et al., 2016). UK-PBC risk score 10-year predicted survival was also calculated for UDCA-treated patients after therapy. Patients taking fibrates and or OCA were not included in the current study. […]
Blood was collected under the approval of the Human Tissue Authority (HTA) by the UK-PBC tissue Bioresource with written informed patient consent obtained in accordance with research and ethics committee (REC) approval (14/NW/1146). […] 4 μl serum was analysed for 368 analytes from 4 distinct panels including Cardiovascular II &Ill, Inflammation and Oncology II (https://www.olink.com/). […] In turn, this was amplified by microfluidic quantitative PCR with normalised protein expression (NPX) data generated by a ΔΔct calculation method. […]

With C[C@H](CCC(=O)O)[C@H]1CC[C@H]2[C@@H]3[C@@H](O)C[C@@H]4C[C@H](O)CC[C@]4(C)[C@H]3CC[C@]12C [UDCA, Ursodeoxycholic acid] the “log Fold Change of serum protein, UDCA Tx vs Naïve Tx” value was −0.84.
